ChEMBL document CHEMBL1201862, “PubChem BioAssay data set” (2004)
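Following 48 hours of exposure in 96-well plates, responses at five concentrations were used to interpolate endpoints linearly. Abbreviation: GI50, concentration required for 50% inhibition of growth.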 Active and inactive are the calls of the source. No stated cut-off is given here; in the data, active = GI50 up to about 1.1 µM and inactive = higher.

How the values were obtained:
Assay in all cases: DTP human tumour cell line panel, 48 h
[1] = test system: RPMI-8226
[2] = test system: MDA-MB-435
[3] = test system: HCC 2998
[4] = test system: SK-OV-3
[5] = test system: A498
[6] = test system: SF-539
[7] = test system: HOP-92
[8] = test system: A549
[9] = test system: MDA-N
[10] = test system: SK-MEL-28
[11] = test system: LOX IMVI
[12] = test system: UACC-257
[13] = test system: MOLT-4
[14] = test system: SNB-75
[15] = test system: SW-620
[16] = test system: HOP-62
[17] = test system: NCI-H226
[18] = test system: COLO 205
[19] = test system: HCT-15
[20] = test system: MDA-MB-231
[21] = test system: BT-549
[22] = test system: UACC-62
[23] = test system: ACHN
[24] = test system: SK-MEL-5
[25] = test system: OVCAR-4
[26] = test system: 786-0
[27] = test system: SN12C
[28] = test system: NCI-H23
[29] = test system: SR
[30] = test system: K562
[31] = test system: NCI-H522
[32] = test system: SK-MEL-2
[33] = test system: MCF7
[34] = test system: CAKI-1
[35] = test system: HCT-116
[36] = test system: HT-29
[37] = test system: Malme-3M
[38] = test system: KM12
[39] = test system: TK-10
[40] = test system: HL-60
[41] = test system: CCRF-CEM
[42] = test system: SF-295
[43] = test system: T47D
[44] = test system: NCI/ADR-RES
[45] = test system: UO-31
[46] = test system: OVCAR-8
[47] = test system: PC-3
[48] = test system: M14
[49] = test system: U-251
[50] = test system: OVCAR-3
[51] = test system: EKVX
[52] = test system: IGROV-1
[53] = test system: OVCAR-5

For `c1ccc(CNc2nncc3[nH]cnc23)cc1`, which GI50 [1] is on record?
Its GI50 is > 100 µM (inactive).

And the GI50 [2]?
Its GI50 is > 100 µM (inactive).

And the GI50 [3]?
Its GI50 is > 100 µM (inactive).

And the GI50 [4]?
The GI50 was > 100 µM (inactive).

And the GI50 [5]?
Its GI50 is > 100 µM (inactive).

And the GI50 [6]?
Its GI50 is > 100 µM (inactive).

And the GI50 [7]?
The GI50 was 69.8 µM (inactive).

And the GI50 [8]?
Its GI50 is > 100 µM (inactive).

And the GI50 [9]?
Its GI50 is > 100 µM (inactive).

And the GI50 [10]?
Its GI50 is > 100 µM (inactive).

What about the GI50 [11] of the same molecule?
The GI50 was 88.9 µM (inactive).

And the GI50 [12]?
The GI50 was > 100 µM (inactive).

And the GI50 [13]?
Its GI50 is > 100 µM (inactive).

What about the GI50 [14] of the same molecule?
The GI50 was > 100 µM (inactive).

What about the GI50 [15] of the same molecule?
The GI50 was > 100 µM (inactive).

And the GI50 [16]?
Its GI50 is > 100 µM (inactive).

And the GI50 [17]?
Its GI50 is > 100 µM (inactive).

And the GI50 [18]?
Its GI50 is > 100 µM (inactive).

And the GI50 [19]?
The GI50 was greater than 100 µM.

What about the GI50 [20] of the same molecule?
Its GI50 is > 100 µM (inactive).

And the GI50 [21]?
The GI50 was > 100 µM (inactive).

And the GI50 [22]?
The GI50 was > 100 µM (inactive).

What about the GI50 [23] of the same molecule?
The GI50 was > 100 µM (inactive).

What about the GI50 [24] of the same molecule?
Its GI50 is > 100 µM (inactive).

What about the GI50 [25] of the same molecule?
Its GI50 is > 100 µM (inactive).

And the GI50 [26]?
Its GI50 is > 100 µM (inactive).

What about the GI50 [27] of the same molecule?
Its GI50 is > 100 µM (inactive).

And the GI50 [28]?
The GI50 was > 100 µM (inactive).

What about the GI50 [29] of the same molecule?
The GI50 was > 100 µM (inactive).

What about the GI50 [30] of the same molecule?
The GI50 was > 100 µM (inactive).

And the GI50 [31]?
The GI50 was > 100 µM (inactive).

And the GI50 [32]?
Its GI50 is > 100 µM (inactive).

And the GI50 [33]?
Its GI50 is > 100 µM (inactive).

What about the GI50 [34] of the same molecule?
Its GI50 is > 100 µM (inactive).

What about the GI50 [35] of the same molecule?
Its GI50 is > 100 µM (inactive).

And the GI50 [36]?
The GI50 was > 100 µM (inactive).

And the GI50 [37]?
Its GI50 is 59.6 µM (inactive).

And the GI50 [38]?
The GI50 was > 100 µM (inactive).

What about the GI50 [39] of the same molecule?
The GI50 was > 100 µM (inactive).

And the GI50 [40]?
The GI50 was > 100 µM (inactive).

And the GI50 [41]?
The GI50 was > 100 µM (inactive).

And the GI50 [42]?
The GI50 was > 100 µM (inactive).

And the GI50 [43]?
The GI50 was > 100 µM (inactive).

What about the GI50 [44] of the same molecule?
Its GI50 is > 100 µM (inactive).

And the GI50 [45]?
The GI50 was > 100 µM (inactive).

What about the GI50 [46] of the same molecule?
The GI50 was > 100 µM (inactive).

And the GI50 [47]?
The GI50 was > 100 µM (inactive).

What about the GI50 [48] of the same molecule?
The GI50 was > 100 µM (inactive).

What about the GI50 [49] of the same molecule?
Its GI50 is > 100 µM (inactive).

What about the GI50 [50] of the same molecule?
Its GI50 is > 100 µM (inactive).

What about the GI50 [51] of the same molecule?
The GI50 was > 100 µM (inactive).

What about the GI50 [52] of the same molecule?
The GI50 was > 100 µM (inactive).

What about the GI50 [53] of the same molecule?
Its GI50 is > 100 µM (inactive).
